Biological target: Phosphatidylinositol 3-kinase catalytic subunit type 3 (Homo sapiens, UniProt Q8NEB9)
Experiment: Biochemical Assay for VPS34
Experimental: Activity of VPS34 kinase was determined using an ADP-Glo kinase activity assay (Promega Corp). Assays were conducted in 384-well plates (5 μL assay volume) using 25 nM VPS34 (ThermoFisher Scientific), […] PI:3PS Lipid Kinase Substrate (Promega Corp.), and 1 mM ATP in kinase buffer. Inhibition of VPS34 was measured by adding serial diluted test compound (final assay concentration of 0.1% DMSO) followed by a 1-hour incubation at 37° C. ADP-Glo reagent was then added […] followed by a 40 min incubation at rt. Kinase detection reagent was then added […] and followed by a 60 min incubation at rt. Luminescence was then detected. The RLU at each compound concentration of was converted to percent inhibition using controls (i.e., reaction with no test compound and reaction with a known inhibitor) and IC50 values were calculated by fitting a four-parameter sigmoidal curve to the data using GeneData Screener software.

Sequence of Phosphatidylinositol 3-kinase catalytic subunit type 3 (Q8NEB9 whole entry): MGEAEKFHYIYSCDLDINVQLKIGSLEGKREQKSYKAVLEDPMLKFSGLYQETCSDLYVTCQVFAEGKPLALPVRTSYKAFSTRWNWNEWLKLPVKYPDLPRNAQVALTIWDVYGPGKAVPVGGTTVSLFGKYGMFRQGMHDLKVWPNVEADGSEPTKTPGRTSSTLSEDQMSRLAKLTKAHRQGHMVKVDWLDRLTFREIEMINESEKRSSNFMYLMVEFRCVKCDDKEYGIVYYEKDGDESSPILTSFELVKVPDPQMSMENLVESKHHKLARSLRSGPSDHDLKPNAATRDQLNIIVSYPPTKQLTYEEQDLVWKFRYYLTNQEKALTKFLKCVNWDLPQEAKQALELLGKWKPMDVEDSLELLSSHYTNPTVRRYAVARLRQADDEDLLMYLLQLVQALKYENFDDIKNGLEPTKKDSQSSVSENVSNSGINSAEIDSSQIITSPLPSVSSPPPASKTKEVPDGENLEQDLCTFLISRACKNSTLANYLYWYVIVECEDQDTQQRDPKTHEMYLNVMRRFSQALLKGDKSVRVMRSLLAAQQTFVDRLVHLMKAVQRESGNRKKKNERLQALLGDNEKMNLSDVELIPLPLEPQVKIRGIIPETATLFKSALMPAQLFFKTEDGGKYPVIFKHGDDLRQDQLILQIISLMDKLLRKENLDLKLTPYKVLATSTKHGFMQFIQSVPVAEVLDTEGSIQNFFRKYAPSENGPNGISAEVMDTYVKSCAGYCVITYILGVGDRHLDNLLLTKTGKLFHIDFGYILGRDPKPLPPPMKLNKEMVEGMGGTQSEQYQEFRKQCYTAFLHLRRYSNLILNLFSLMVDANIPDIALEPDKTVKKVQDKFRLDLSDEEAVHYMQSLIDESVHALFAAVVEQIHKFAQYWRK

Work on COC(=O)Nc1cc(-c2cc(-c3cnccc3C(F)(F)F)[nH]c(=O)c2)c(C)cn1 [US20250236609, Example 4] yielded an IC50 of under 0.1 µM.

— BindingDB's records for patent US20250236609 (Deciphera Pharmaceuticals, 2025)
